The test system of test [1] is cleaved PARP, BCL-xL, Survivin. Nature of the test: Western blot of apoptosis proteins (U266, L363 lysates). Format: cell-based, human. The following applies: U266 or L363 lysates, 48 hours. (In general: A western blot detects proteins with antibodies after separation by electrophoresis.)
Protocol: In sequential experiments, the first agent listed was added 24 hours prior to the addition of the second agent.
Western blot of control, single agent, and combination treated (D) L363 or (E) U266 cells at 48 hours.
The target of the next test is HDAC1 (Homo sapiens, UniProt Q13547). The following applies: cited from earlier work.
A further test addresses HDAC2 (Homo sapiens, UniProt Q92769). The following applies: cited from earlier work.
The next test deals with RRM2, γH2AX. Nature of the test: Western blot of L363 lysates for RRM2 and DNA damage marker. The following applies: L363, 48 hours; sirolimus 10 nM, entinostat 0.5 μM, Triapine 1 μM.
The test system of another test is L363 cells. Nature of the test: L363 cell viability after triapine and/or sirolimus. The following applies: L363, 48 hour treatment.

Chain of HDAC1 (Q13547 whole entry): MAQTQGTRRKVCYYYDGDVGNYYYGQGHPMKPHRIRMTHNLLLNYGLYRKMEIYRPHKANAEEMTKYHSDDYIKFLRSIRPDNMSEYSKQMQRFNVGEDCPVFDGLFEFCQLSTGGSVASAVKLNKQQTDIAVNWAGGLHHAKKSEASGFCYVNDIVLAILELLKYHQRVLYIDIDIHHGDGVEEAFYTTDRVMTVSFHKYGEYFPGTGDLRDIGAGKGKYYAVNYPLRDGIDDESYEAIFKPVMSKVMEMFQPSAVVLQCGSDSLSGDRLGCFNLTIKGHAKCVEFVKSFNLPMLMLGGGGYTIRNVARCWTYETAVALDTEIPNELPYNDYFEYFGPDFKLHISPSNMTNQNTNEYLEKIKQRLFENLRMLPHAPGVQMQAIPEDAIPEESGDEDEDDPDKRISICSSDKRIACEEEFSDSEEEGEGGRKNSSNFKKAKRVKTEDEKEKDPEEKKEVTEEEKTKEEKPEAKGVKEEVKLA
Chain of HDAC2 (Q92769 whole entry): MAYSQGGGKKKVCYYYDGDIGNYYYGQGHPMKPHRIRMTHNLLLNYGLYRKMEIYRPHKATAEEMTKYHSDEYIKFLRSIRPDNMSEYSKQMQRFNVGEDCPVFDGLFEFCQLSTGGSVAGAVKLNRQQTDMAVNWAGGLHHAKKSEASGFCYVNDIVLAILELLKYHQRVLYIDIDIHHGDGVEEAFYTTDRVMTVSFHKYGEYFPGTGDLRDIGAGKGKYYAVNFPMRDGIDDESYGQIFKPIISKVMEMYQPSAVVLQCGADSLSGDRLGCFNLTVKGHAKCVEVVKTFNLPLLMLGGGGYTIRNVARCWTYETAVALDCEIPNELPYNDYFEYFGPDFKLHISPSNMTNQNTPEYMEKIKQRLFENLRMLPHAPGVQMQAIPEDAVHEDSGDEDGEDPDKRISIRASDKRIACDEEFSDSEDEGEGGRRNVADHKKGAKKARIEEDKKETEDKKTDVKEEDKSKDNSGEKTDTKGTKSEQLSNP
Protocol for L363 cells: (§1) L363 cell viability after 48 hour treatment with triapine and/or sirolimus. Significance between treatments was determined by repeated measures ANOVA with the Bonferroni correction.
Protocol for RRM2, γH2AX: as §1

`Nc1ccccc1NC(=O)c1ccc(CNC(=O)OCc2cccnc2)cc1` [entinostat]: the PARP cleavage entry in test [1] is “observed”. Also, at HDAC1, the “activity against HDAC1” value was “strong activity” and the “affinity for HDAC1” value was “high affinity”. Further, the “activity for HDAC2” value at HDAC2 is “weak activity”.
For `NC(=S)N/N=C/c1ncccc1N` [triapine], the “DNA damage marker γH2AX” value in the test with RRM2, γH2AX is “increased yH2AX”. In addition, in the test with L363 cells, the MM cell viability result was “inhibited MM cell viability”.

The values are drawn from US9670549B2, “Gene expression signatures of neoplasm responsiveness to therapy” (The United States of America, as represented by the …, priority 2011, dated 2017).
